Source: patent US20130071897A1, “METHOD FOR CONTROLLING UNDESIRABLE BYPRODUCTS FORMATION CAUSED BY CONTAMINATING ORGANISMS IN THE PRODUCTION OF ETHANOL FROM SYNGAS” (COSKATA, INC., priority 2011, published 2013)

Test system: acyl-CoA dehydrogenases
Assay: In vitro acyl-CoA dehydrogenase ferrocenium assay with C. tyrobutyricum cell-free extract
Type: biochemical
Details: 0.5 to 10 mM compound, rate of ferrocenium reduction at 300 nm
Method in brief: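 Lysozyme-lysed cell-free extract of early-log C. tyrobutyricum was assayed anaerobically at laboratory temperature in 50 mM Tris-HCl pH 7.6 with 0.05 mM butyryl-CoA, FAD and 0.4 mM ferrocenium. Ferrocenium reduction was followed at 300 nm over 10–20 min, and the rate slope was plotted against compound concentration to give a dose-response slope.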

SMILES	Dose-Response Slope	Dose-Response Slope (listed as Ethyl 4,4,4-trifluoro-3-(trifluoromethyl)crotonate)
CCOC(=O)/C=C(\N)C(F)(F)F [B, ethyl-3-amino-4,4,4-trifluorocrotonate]	25	–
CCOC(=O)C=C(C(F)(F)F)C(F)(F)F [Compound A, ethyl 4,4,4-trifluoro-3-(trifluoromethyl)crotonate]	about 8	8
